Key:
[1] = test system: alkaline phosphatase; assay: Control: alkaline phosphatase activity in solution; format: biochemical
[2] = test system: PC3 cells; assay: PC3 cell retraction assay; format: cell-based
Protocol: FIGS. 9A-9G. A. PC3 cells pretreated for 15 min with the indicated concentrations of compound 1 or compound 2 were stimulated with 0.5 μg/mL ephrin-A1 Fc (+) or Fc as a control (−) for 20 min in the continued presence of the compounds. EphA2 immunoprecipitates were probed with anti-phosphotyrosine antibody (PTyr) and reprobed for EphA2. C indicates immunoprecipitations performed with control antibodies. B. Histogram showing the levels of EphA2 phosphorylation normalized to the amount of immunoprecipitated EphA2. Error bars indicate standard error from 3 experiments. Receptor phosphorylation levels were compared with those in the ephrin-stimulated cells by one-way ANOVA and Dunnett's post test. *P<0.05 and *P<0.01. C. PC3 cells stimulated with compound 1 as in (A) were stained with rhodamine-phalloidin to label actin filaments and DAPI to label nuclei. DMSO was used as a control (0 μM). D. Histogram showing the mean area of the cells normalized to the value obtained for the Fc stimulated cells. E. Histogram showing the mean percentage of retracting cells. Cells having rounded shape and area less than 20% of the mean value obtained for the Fc stimulated cells were scored as retracting. Error bars in D and E indicate standard error from 3 experiments. F-H. The same experiments as in (C-E) were performed using compound 2. The areas occupied by the cells and the percentage of cell retraction under different conditions were compared to those in the Fc control condition by one-way ANOVA and Dunnett's post test. *P<0.05 and **P<0.01. Scale bars in (C) and (F)=50 μm.
PC3 Cell Retraction Assay—PC3 cells were plated on glass coverslips and grown in RPMI 1640 medium (Mediatech, Inc, Herndon, Va.) with 10% FBS and Pen/Strep. After 17 hours the cells were starved for 3 hours in 0.5% FBS in DMEM and then incubated for 40 min with the compounds or DMSO, before stimulation for 10 min with 0.5 μg/mL of ephrin-A1 Fc or Fc as a control. The cells were fixed in 4% formaldehyde in PBS, permeabilized in 0.5% Triton X-100 in TBS and stained with rhodamine-conjugated phalloidin (Invitrogen, Carlsbad, Calif.) and DAPI. Cells were photographed under a fluorescence microscope and cell area was measured in a blinded manner using ImageJ software. Cells having rounded shape and area equal or below 20% of the area of Fc control-treated cells were considered as retracting.

[3] = target: EphA4 (Mus musculus, UniProt Q03137); assay: EphA4 tyrosine phosphorylation in HT22 neuronal cells; format: cell-based; design: tyrosine phosphorylation of endogenous EphA4 in HT22 neuronal cells stimulated with ephrin-A5 Fc; endogenous in cells; host or cells: HT22 mouse hippocampal neuronal cells; details: for ephrin-induced EphA4 tyrosine phosphorylation: HT22 cells stimulated with ephrin-A5 Fc; for EphA4 phosphorylation: cells stimulated with ephrin-A4
Protocol: FIGS. 6A-6F. A. HT22 neuronal cells pretreated with the indicated concentrations of compounds 1 or 2 for 15 min were stimulated with 0.5 μg/mL ephrin-A5 Fc (+) or Fc as a control (−) for 20 min in the continued presence of the compounds. EphA4 immunoprecipitates were probed with anti-phosphotyrosine antibody (PTyr) and reprobed for EphA4. C indicates immunoprecipitations performed with control antibodies from non-immunized rabbits. […] Error bars represent the standard error from 4 experiments for compound 1 and 3 experiments for compound 2. […] C. COS7 cells pretreated with the indicated concentrations of compounds 1 or 2 for 15 min were stimulated with 0.1 μg/mL ephrin-A1 Fc or Fc as a control in the continued presence of the compounds. EphA2 immunoprecipitates were probed with anti-phosphotyrosine antibody (PTyr) and reprobed for EphA2. C indicates immunoprecipitations performed with control antibodies. […] Error bars represent the standard error from 2 experiments. Statistical analyses were performed as in (B). HUVE cells were left unstimulated or stimulated with TNFα for 2 hours in the presence of 400 μM compound 1. Duplicate untreated samples are shown. C indicates immunoprecipitations performed with control antibodies. EphA2 immunoprecipitates were probed with anti-phosphotyrosine antibody (PTyr) and reprobed for EphA2. Levels of EphA2 phosphorylation quantified from immunoblots and normalized to the amount of immunoprecipitated EphA2 were also performed. […] The same protocol described in (C) was used, except that COS7 cells were stimulated with 0.5 μg/mL of ephrin-B2 Fc and the EphB2 receptor was immunoprecipitated. F. COS7 cells pretreated with the indicated concentrations of compounds 1 or 2 were stimulated with EGF (+) or left unstimulated (−). Lysates were probed with anti-phosphotyrosine antibody (PTyr) and reprobed for the EGF receptor.
Measurement of Receptor Tyrosine Phosphorylation in Cells—HT22 neuronal cells, which endogenously express EphA4, are derived from immortalized mouse hippocampal neurons (Li et al. (1997) Neuron 19(2), 453-463). COST cells, which endogenously express EphA2, EphB2 and the EGF receptor (EGFR), were obtained from ATCC. Both cell lines were grown in Dulbecco's Modified Eagle's Medium (DMEM) (Mediatech, Inc, Herndon, Va.) with 10% fetal bovine serum (FBS) (Hyclone, Logan, Utah) and Pen/Strep. For EphA4 immunoprecipitations, HT22 cells were serum-starved overnight in 0.5% FBS in DMEM and incubated for 15 min with the compounds or DMSO as a control. The cells were then stimulated with 0.5 μg/mL ephrin-A5 Fc, ephrin-A4 Fc or Fc for 20 min in the continued presence of the compounds. […] The protein concentration was calculated using the BCA protein assay kit (Pierce Biotecnology, Rockford, Ill.). […]

Sequence of EphA4 (Q03137 20-986): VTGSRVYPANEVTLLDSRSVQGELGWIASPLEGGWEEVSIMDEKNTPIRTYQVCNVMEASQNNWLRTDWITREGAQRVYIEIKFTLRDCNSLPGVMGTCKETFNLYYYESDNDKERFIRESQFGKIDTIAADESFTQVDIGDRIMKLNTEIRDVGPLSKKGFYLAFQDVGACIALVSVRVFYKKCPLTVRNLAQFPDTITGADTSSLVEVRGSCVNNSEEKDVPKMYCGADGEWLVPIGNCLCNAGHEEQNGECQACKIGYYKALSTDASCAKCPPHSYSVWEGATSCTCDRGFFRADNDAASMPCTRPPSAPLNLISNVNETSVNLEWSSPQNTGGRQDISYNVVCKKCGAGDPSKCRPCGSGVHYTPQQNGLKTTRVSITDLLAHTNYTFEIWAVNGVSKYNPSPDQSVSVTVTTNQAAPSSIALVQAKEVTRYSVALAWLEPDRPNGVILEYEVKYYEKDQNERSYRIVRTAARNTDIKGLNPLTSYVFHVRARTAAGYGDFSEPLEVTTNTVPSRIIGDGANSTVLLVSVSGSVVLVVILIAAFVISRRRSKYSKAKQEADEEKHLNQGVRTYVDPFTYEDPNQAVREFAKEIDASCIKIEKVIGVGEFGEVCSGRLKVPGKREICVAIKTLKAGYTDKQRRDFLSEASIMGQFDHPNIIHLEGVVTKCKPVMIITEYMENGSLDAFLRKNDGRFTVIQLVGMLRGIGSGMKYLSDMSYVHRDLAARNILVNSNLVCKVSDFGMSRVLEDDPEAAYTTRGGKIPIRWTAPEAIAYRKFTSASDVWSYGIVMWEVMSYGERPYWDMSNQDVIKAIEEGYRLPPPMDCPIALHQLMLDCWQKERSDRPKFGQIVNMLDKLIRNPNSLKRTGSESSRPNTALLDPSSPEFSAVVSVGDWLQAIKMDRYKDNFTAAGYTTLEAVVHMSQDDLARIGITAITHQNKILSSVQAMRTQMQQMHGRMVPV

Structure (SMILES) | inhibition of alkaline phosphatase activity (control) [1] | cell morphology in the absence of ephrin treatment [2] | decrease in cell spreading caused by ephrin-A1 Fc [2] | increase in the percentage of rounded cells caused by ephrin-A1 Fc [2] | ephrin-induced EphA4 tyrosine phosphorylation [3] | EphA4 phosphorylation [3]
Cc1ccc(C)n1-c1ccc(C(=O)O)c(O)c1 [compound 1, 4-(2,5-dimethyl-pyrrol-1-yl)-2-hydroxy-benzoic acid] | does not inhibit | did not affect | blocked | blocked | blocked | did not inhibit
Cc1ccc(C)n1-c1ccc(O)c(C(=O)O)c1 [compound 2, 5-(2,5 dimethyl-pyrrol-1-yl)-2-hydroxy-benzoic acid] | – | did not affect | blocked | blocked | blocked | did not inhibit
